Assay results published in patent US10709704B2, “Treating neural disease with tyrosine kinase inhibitors” (GEORGETOWN UNIVERSITY, priority 2012, dated 2020).

What was measured:
parkin = experiment: Parkin levels in neuroblastoma cells (ELISA, WB); assay type: cell-based
Procedure: (§1) Human neuroblastoma M17 or rat B35 cells were grown in 24 well dishes (Falcon). Transient transfection was performed with 3 μg Aβ1-42 cDNA, or 3 μg LacZ cDNA for 24 hr. […] Cells were harvested 48 hr after transfection.
(§2) Parkin levels were measured via ELISA using parkin−/− brain extracts as a specificity control (FIG. 66A).

transgenic A53T mice = experiment: Rotarod, A53T mice; assay type: in vivo, mouse
Description: Mice were placed on an accelerating rotarod (Columbus Instruments) equipped with individual timers for each mouse. […] All values were converted to % control.

[1] = test system: lentiviral Aβ1-42-injected parkin−/− mice; experiment: Morris water maze, lentiviral Aβ1-42 parkin−/− mice; assay type: in vivo, mouse
Procedure: (§3) All animals were pre-trained (trials) to swim for 90 seconds in a water maze containing a platform submerged in water (invisible) for 4 consecutive days once a day. The pretraining trials “teach” the swimming animals that to “escape”, they must find the hidden platform, and stay on it. The water maze “test” was performed on day 5, (40), when the platform was removed and mice have to swim and find it, thus assessing acquisition and retention. All parameters, including distance travelled to reach platform, speed to get to the platform, latency or time spent on platform, and platform entry were digitally recorded on a computer and analyzed by a blind investigator.
(§4) The Morris water maze test was performed after 4 days of training trials in which the platform was placed in the SE corner and mice were initially placed in the NW corner of the pool.

[2] = test system: dopamine and homovanillic acid (HVA) levels; experiment: Dopamine and HVA ELISA, lentiviral α-Synuclein mice; assay type: in vivo, mouse; details: 10 mg/kg Nilotinib or 5 mg/Kg Bosutinib
Procedure: Total brain or mesencephalon were collected and fresh 50 μl (1 μg/μl) brain lysates (in STEN buffer) were detected with 50 μl primary antibody (1 h) and 100 μl anti-rabbit secondary antibody (30 min) at RT according to manufacturer's protocols (Abnova, Cat # BOLD01090J00011) for DA and (Eagle Biosciences, Cat # HVA34-K01) for HVA.

[3] = test system: lentiviral Aβ1-42-injected wild type mice; experiment: Morris water maze, lentiviral Aβ1-42 wild type mice; assay type: in vivo, mouse; details: Nilotinib
Procedure: as §3, §4

[4] = test system: SN Tyrosine hydroxylase (TH) neurons; experiment: TH neuron stereology and electron microscopy of SN, lentiviral α-Synuclein mice; assay type: in vivo, mouse
Procedure: Animals were deeply anesthetized with a mixture of Xylazine and Ketamine (1:8), washed with 1× saline for 1 min and then perfused with 4% paraformaldehyde (PFA) for 15-20 min. Brains were quickly dissected out and immediately stored in 4% PFA for 24 h at […], and then transferred to 30% sucrose at […] for 48 h. Tyrosine Hydroxylase (TH) was probed (1:100) with rabbit polyclonal (AB152) antibody (Millipore) and human α-Synuclein was probed (1:100) with mouse monoclonal antibodies (Thermo Scientific) and DAB counterstained.
These were applied by a blinded investigator using unbiased stereology analysis (Stereologer, Systems Planning and Analysis, Chester, Md.) to determine the total positive cell counts in 20 cortical fields on at least 10 brain sections (˜400 positive cells per animal) from each animal.
Brain tissues are fixed in (1:4, v:v) 4% PFA-picric acid solution and […] overnight, then washed 3× in 0.1 M cacodylate buffer and osmicated in 1% osmium tetroxide/1.5% potassium ferrocyanide for 3 h, followed by another 3× wash in distilled water. […] Blocks are sectioned on a Leica ultracut microtome at 95 nm, picked up onto […] formvar-coated copper grids and analyzed using a Philips Technai Spirit transmission EM. […]

[5] = test system: molecular markers of autophagy; experiment: Western blot of autophagy markers, lentiviral Aβ1-42 parkin−/− mice; assay type: in vivo, mouse
Aβ1-42 parkin−/− mice = experiment: Novel object recognition, Aβ1-42 parkin−/− mice; assay type: in vivo, mouse; details: Aβ1-42 parkin−/− mice with or without Nilotinib
Procedure: Mice were placed individually in a 22×32×30 cm testing chamber for a 5 min habituation interval and returned to their home cages. Thirty minutes later mice were placed in the testing chamber for 10 min with two identical objects (acquisition session), then returned to their home cages and […] placed back in the testing chamber in the presence with one of the original objects and one novel object of the same size but of a different color and shape (recognition session). Sessions were video recorded. Time spent exploring the objects were scored by blind observer. The recognition index was calculated as (time exploring one of the objects/time exploring both objects)×100 for acquisition session, and (time exploring new object/time exploring both familiar and novel objects)×100 for the recognition session. Statistical calculations to estimate differences between sessions were performed with a pairwise t-test.
These experiments were repeated in 1 year old Tg-APP mice and age-matched control (C57BL/6).

[6] = test system: human M17 neuroblastoma cells; experiment: MTT cell viability, M17 cells transfected with Aβ1-42 or LacZ; assay type: cell-based; details: Nilotinib 24 hr
Procedure: as §1, §2

caspase-3 activation = test system: caspase-3 activation
Procedure: Lentiviral constructs encoding LacZ, or Aβ1-42 were stereotaxically injected 1×106 multiplicity of infection (m.o.i) bilaterally into the CA1 hippocampus of 1 year old C57BL/6 or parkin−/−. A Total of […] lentiviral stocks were delivered at a rate of 0.2 μl/min and. All procedures were approved by the Georgetown University Animal Care and Use Committee (GUACUC).
Aβ and p-Tau enzyme-linked immunosorbent assay (ELISA) using specific p-Tau, Aβ1-40 and Aβ1-42 ELISA and caspase-3 activity were performed according to manufacturer's protocol.

In the case of `Cc1cn(-c2cc(NC(=O)c3ccc(C)c(Nc4nccc(-c5cccnc5)n4)c3)cc(C(F)(F)F)c2)cn1` [Nilotinib], the “increase in parkin (ELISA), non-significant” value (parkin; 10 μM Nilotinib) is reported as 17%, the “increase in parkin (ELISA)” value (parkin; Aβ1-42 + Nilotinib) is reported as 24% and the “increase in Nilotinib-induced parkin on blocking beclin-1 with shRNA (WB)” value (parkin; shRNA beclin-1 + Nilotinib) is reported as 28%. For the same compound, the “increase in rotarod motor performance above control levels” value (transgenic A53T mice; 6-8 months old A53T mice, Nilotinib) was 45%, the “motor performance (rotarod)” value (transgenic A53T mice; A53T mice, 10 mg/kg Nilotinib or 5 mg/Kg Bosutinib once daily for 3 weeks) was “increased” and the “decrease in distance travelled compared to control and wild type” value ([1]; Aβ1-42 parkin−/− mice with Nilotinib (first of '±Nilotinib ... respectively')) was 80%. For the same compound, the “time in NW quadrant” value ([1]; Aβ1-42 parkin−/− mice with and without Nilotinib) was “remained significantly more in the NW quadrant”, the “α-synuclein induced loss of dopamine and HVA levels (ELISA)” value [2] was “reversed these effects” and the “time spent in NW quadrant” value ([3]; Aβ1-42-injected wild type mice) was “back to the level observed in control mice”. For the same compound, the “improved time spent in SE compared to DMSO” value ([3]; Aβ1-42 wild type mice) was 61%, the “improved time spent in SE compared to control” value ([3]; Aβ1-42 wild type mice) was 26% and the “number of entries into SE (platform entry)” value ([3]; Aβ1-42 wild type mice) was “reversed the number of entries back to control”. The “TH+ neurons (by stereology)” value ([4]; lentiviral α-Synuclein mice + Nilotinib) was 82 % of LacZ level, the “autophagic vacuoles in SN neurons (transmission electron microscopy)” value ([4]; lentiviral α-Synuclein mice, Nilotinib treatment) was “appearance of larger AVs” and the “Atg12 and Atg5 levels (WB)” value [5] was “not changed”. The “LC3-II (WB)” value [5] was “did not clear”, the “novel object recognition learning” value (Aβ1-42 parkin−/− mice) was “did not learn” and the “cell viability (MTT) after Aβ1-42 induced cell death” value ([6]; Aβ1-42 expressing cells) was 83 % of control level. The “cell death (by MTT)” value ([6]; LacZ cells) was “No cell death”, the “increase in caspase-3 activation” value (caspase-3 activation; lentiviral Aβ1-42 parkin−/− mice with Nilotinib (without 180%)) was 165% and the “caspase-3 activation above control” value (caspase-3 activation; lentiviral Aβ1-42 wild type mice, 10 mg/kg daily 3 weeks (DMSO 165%)) was 45 % above control.
